Laboratory results reported in patent publication US7396837B2, “Antitumoral analogs of lamellarins” (Pharma Mar, S.A.U., priority 2002, dated 2008).
Where two headings read alike, the source gives them in different places.

Assays:
SK-BR-3 = assay: SRB colorimetric cell growth inhibition assay, SK-BR-3; type: cell-based; details: for GI50: GI=growth inhibition, read-out: GI50 SK-BR-3; for TGI SK-BR-3: total growth inhibition (cytostatic effect)
Outline: (§1)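 Continuous-exposure format, human tumour lines. SRB colour reaction quantifies growth/viability. Triplicate wells → mean ± SD → GI, TGI, LC.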

LoVo-Dox = assay: SRB colorimetric cell growth inhibition assay, LoVo-Dox (MDR); type: cell-based; details: for GI50: GI=growth inhibition, read-out: GI50 LOVO-DOX; for CC50: cell killing (cytotoxic effect)
Outline: as §1

SK-MEL-28 = assay: SRB colorimetric cell growth inhibition assay, SK-MEL-28; type: cell-based; details: for GI50: GI=growth inhibition, read-out: GI50 MEL-28; for TGI MEL-28: total growth inhibition (cytostatic effect)
Outline: as §1

SKOV-3 = assay: SRB colorimetric cell growth inhibition assay, SKOV-3; type: cell-based; details: SKOV-3
Source text: (§2) A colorimetric type of assay, using sulforhodamine B (SRB) reaction has been adapted for a quantitative measurement of cell growth and viability (following the technique described by P. A. Skehan, et al., J. Natl. Cancer Inst. 1990, 82, 1107-1112).
(§3) This form of assay employs 96 well cell culture microplates of 9 mm diameter (T. Mosmann et al., J. of Immunological Methods 1983, 65, 55-63; G. T. Faircloth et al., J. of Tissue and Culture Methods 1988, 11, 201-205).
(§4) Most of the cell lines are obtained from American Type Culture Collection (ATCC) derived from different human cancer types.
(§5) The values for mean +/− SD of data from triplicate wells are calculated. Some parameters for cellular responses can be calculated: GI=growth inhibition, TGI=total growth inhibition (cytostatic effect) and LC=cell killing (cytotoxic effect).

IGROV-ET = assay: SRB colorimetric cell growth inhibition assay, IGROV-ET (ET-743 resistant); type: cell-based; details: for GI50: GI=growth inhibition, read-out: GI50 IGROV-ET; for TGI IGROV-ET: total growth inhibition (cytostatic effect)
Outline: as §1

IGROV = assay: SRB colorimetric cell growth inhibition assay, IGROV; type: cell-based; details: for GI50: GI=growth inhibition, read-out: GI50 IGROV; for TGI IGROV: total growth inhibition (cytostatic effect)
Outline: as §1

A-549 = assay: SRB colorimetric cell growth inhibition assay, A-549; type: cell-based; details: for GI50: GI=growth inhibition, read-out: GI50 A-549; for CC50: cell killing (cytotoxic effect)
Outline: as §1

PANC-1 = assay: SRB colorimetric cell growth inhibition assay, PANC-1; type: cell-based; details: for GI50: GI=growth inhibition, read-out: GI50 PANC-1; for CC50: cell killing (cytotoxic effect)
Outline: as §1

LoVo = assay: SRB colorimetric cell growth inhibition assay, LoVo; type: cell-based; details: for GI50: GI=growth inhibition, read-out: GI50 LOVO; for CC50: cell killing (cytotoxic effect)
Outline: as §1

human topoisomerase I = biological target: T1, human topoisomerase I (Homo sapiens, UniProt P11387); assay: Topoisomerase I DNA relaxation assay (supercoiled plasmid DNA); type: biochemical; details: supercoiled plasmid DNA, each compound tested at 1 μM, agarose gel with ethidium bromide
T1 sequence (P11387 1-765): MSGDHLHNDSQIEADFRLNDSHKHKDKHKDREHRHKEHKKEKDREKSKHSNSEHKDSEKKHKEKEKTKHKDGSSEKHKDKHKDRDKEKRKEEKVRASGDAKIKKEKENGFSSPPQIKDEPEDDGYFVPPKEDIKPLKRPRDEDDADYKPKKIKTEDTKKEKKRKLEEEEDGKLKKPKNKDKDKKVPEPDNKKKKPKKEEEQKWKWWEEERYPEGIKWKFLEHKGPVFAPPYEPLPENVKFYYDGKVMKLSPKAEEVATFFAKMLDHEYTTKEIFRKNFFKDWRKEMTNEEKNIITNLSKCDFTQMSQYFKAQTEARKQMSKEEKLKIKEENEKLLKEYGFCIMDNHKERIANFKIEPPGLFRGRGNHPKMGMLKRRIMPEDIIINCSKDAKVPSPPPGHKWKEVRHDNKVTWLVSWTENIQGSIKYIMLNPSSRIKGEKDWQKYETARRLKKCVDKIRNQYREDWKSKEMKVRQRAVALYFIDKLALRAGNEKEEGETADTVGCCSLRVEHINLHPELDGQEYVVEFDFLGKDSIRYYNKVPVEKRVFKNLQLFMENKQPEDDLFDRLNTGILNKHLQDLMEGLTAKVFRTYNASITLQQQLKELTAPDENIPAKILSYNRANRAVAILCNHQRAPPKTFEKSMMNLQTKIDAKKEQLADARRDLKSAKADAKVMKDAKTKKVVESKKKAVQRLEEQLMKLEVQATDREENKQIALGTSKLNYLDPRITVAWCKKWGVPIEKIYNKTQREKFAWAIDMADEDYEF
Description: Two assays, based on DNA relaxation and DNA cleavage (Bailly, C. DNA relaxation and cleavage assays to study topoisomerase I inhibitors. Methods Enzymol. 2001, 340, 610-623) were used evaluate the effects of the lamellarin analogs on the catalytic activity of human topoisomerase I.
In the first assay, a supercoiled plasmid DNA was relaxed with topoisomerase I in the absence or presence of the test compounds, each tested at 1 μM. DNA relaxation products were then resolved by gel electrophoresis on agarose gels containing ethidium bromide to stain the DNA.

K-562 = assay: SRB colorimetric cell growth inhibition assay, K-562; type: cell-based; details: for GI50: GI=growth inhibition, read-out: GI50 K-562; for CC50: cell killing (cytotoxic effect)
Outline: as §1

H-MEC-1 = assay: SRB colorimetric cell growth inhibition assay, H-MEC-1; type: cell-based; details: H-MEC-1
Source text: as §2, §3, §4, §5

LNCaP = assay: SRB colorimetric cell growth inhibition assay, LNCaP; type: cell-based; details: for GI50: GI=growth inhibition, read-out: GI50 LN-caP; for TGI LN-caP: total growth inhibition (cytostatic effect)
Outline: as §1

DU-145 = assay: SRB colorimetric cell growth inhibition assay, DU-145; type: cell-based; details: for GI50: GI=growth inhibition, read-out: GI50 DU-145; for TGI DU-145: total growth inhibition (cytostatic effect)
Outline: as §1

HT-29 = assay: SRB colorimetric cell growth inhibition assay, HT-29; type: cell-based; details: for GI50: GI=growth inhibition, read-out: GI50 HT-29; for CC50: cell killing (cytotoxic effect)
Outline: as §1

[1] = total growth inhibition (cytostatic effect)

COc1cc(-c2c3n(c4c(=O)oc5cc(OS(C)(=O)=O)c(OC)cc5c24)CCc2cc(OS(C)(=O)=O)c(OC)cc2-3)ccc1OS(C)(=O)=O [Compound 22]
GI50 (SK-BR-3; SK-BR-3): 0.257 µM | CC50 (SK-BR-3; SK-BR-3, cell killing (cytotoxic effect), read-out: LC50 SK-BR-3): 7.16 µM | TGI SK-BR-3 (SK-BR-3; SK-BR-3): 1.81E−06 Molar | GI50 (LoVo-Dox; LOVO-DOX): 6.59 µM | CC50 (LoVo-Dox; LOVO-DOX, read-out: LC50 LOVO-DOX): 13.6 µM | TGI LOVO-DOX (LoVo-Dox; LOVO-DOX, total growth inhibition (cytostatic effect)): 1.36E−05 Molar | GI50 (SK-MEL-28; MEL-28): 0.332 µM | CC50 (SK-MEL-28; MEL-28, cell killing (cytotoxic effect), read-out: LC50 MEL-28): 13.6 µM | TGI MEL-28 (SK-MEL-28; MEL-28): 3.56E−06 Molar | GI50 (SKOV-3; GI=growth inhibition, read-out: GI50 SKOV-3): 0.201 µM | LC50 (concentration causing 50% net cell killing) (SKOV-3; cell killing (cytotoxic effect), read-out: LC50 SKOV-3): 13.6 µM | TGI SKOV-3 (SKOV-3; [1]): 2.22E−06 Molar | GI50 (IGROV-ET; IGROV-ET): 2.89 µM | CC50 (IGROV-ET; IGROV-ET, cell killing (cytotoxic effect), read-out: LC50 IGROV-ET): 13.6 µM | TGI IGROV-ET (IGROV-ET; IGROV-ET): 1.36E−05 Molar | GI50 (IGROV; IGROV): 0.787 µM | CC50 (IGROV; IGROV, cell killing (cytotoxic effect), read-out: LC50 IGROV): 13.6 µM | TGI IGROV (IGROV; IGROV): 8.54E−06 Molar | GI50 (A-549; A-549): 0.89 µM | CC50 (A-549; A-549, read-out: LC50 A-549): 13.6 µM | TGI A-549 (A-549; A-549, total growth inhibition (cytostatic effect)): 7.73E−06 Molar | GI50 (PANC-1; PANC-1): 0.976 µM | CC50 (PANC-1; PANC-1, read-out: LC50 PANC-1): 13.6 µM | TGI PANC-1 (PANC-1; PANC-1, total growth inhibition (cytostatic effect)): 1.36E−05 Molar | GI50 (LoVo; LOVO): 0.484 µM | CC50 (LoVo; LOVO, read-out: LC50 LOVO): 13.6 µM | TGI LOVO (LoVo; LOVO, total growth inhibition (cytostatic effect)): 2.49E−06 Molar | stimulation of DNA cleavage by topoisomerase I / inhibition of topoisomerase I (nicked DNA band) in DNA relaxation assay (human topoisomerase I): inactive | GI50 (K-562; K-562): 0.67 µM | CC50 (K-562; K-562, read-out: LC50 K-562): 13.6 µM | TGI K-562 (K-562; K-562, total growth inhibition (cytostatic effect)): 4.77E−06 Molar | GI50 (H-MEC-1; GI=growth inhibition, read-out: GI50 H-MEC-1): 0.856 µM | LC50 (concentration giving 50% net cell killing) (H-MEC-1; cell killing (cytotoxic effect)): 10.4 µM | TGI H-MEC-1 (H-MEC-1; [1]): 2.91E−06 Molar | GI50 (LNCaP; LN-caP): 0.564 µM | CC50 (LNCaP; LN-caP, cell killing (cytotoxic effect), read-out: LC50 LN-caP): 13.6 µM | TGI LN-caP (LNCaP; LN-caP): 1.82E−06 Molar | GI50 (DU-145; DU-145): 0.743 µM | CC50 (DU-145; DU-145, cell killing (cytotoxic effect), read-out: LC50 DU-145): 13.6 µM | TGI DU-145 (DU-145; DU-145): 8.10E−06 Molar | GI50 (HT-29; HT-29): 0.879 µM | CC50 (HT-29; HT-29, read-out: LC50 HT-29): 13.6 µM | TGI HT-29 (HT-29; HT-29, total growth inhibition (cytostatic effect)): 1.36E−05 Molar

COc1cc(-c2c3n(c4c(=O)oc5cc(OC(=O)[C@@H](N)C(C)C)c(OC)cc5c24)CCc2cc(OC(=O)[C@@H](N)C(C)C)c(OC)cc2-3)ccc1OC(=O)[C@@H](N)C(C)C [Compound 135]
GI50 (SK-BR-3; SK-BR-3): 0.579 µM | TGI SK-BR-3 (SK-BR-3; SK-BR-3): 2.61E−06 Molar | CC50 (SK-BR-3; human): 8.76 µM | IC (TGI) (LoVo-Dox; Homo sapiens, LOVO-DOX, total growth inhibition (cytostatic effect), read-out: TGI LOVO-DOX): 8.76 µM | CC50 (LoVo-Dox; Homo sapiens, read-out: LC50 LOVO-DOX, LOVO-DOX): 8.76 µM | GI50 (LoVo-Dox; LOVO-DOX): 3.8 µM | GI50 (SK-MEL-28; MEL-28): 1.67 µM | TGI MEL-28 (SK-MEL-28; MEL-28): 5.00E−06 Molar | CC50 (SK-MEL-28; human): 8.76 µM | GI50 (IGROV-ET; IGROV-ET): 0.586 µM | TGI IGROV-ET (IGROV-ET; IGROV-ET): 1.98E−06 Molar | CC50 (IGROV-ET; human): 6.33 µM | GI50 (IGROV; IGROV): 2.1 µM | TGI IGROV (IGROV; IGROV): 4.68E−06 Molar | CC50 (IGROV; human): 8.76 µM | GI50 (A-549; A-549): 3.34 µM | IC (TGI) (A-549; Homo sapiens, A549, A-549, total growth inhibition (cytostatic effect), read-out: TGI A-549): 8.76 µM | CC50 (A-549; Homo sapiens, A549, read-out: LC50 A-549, A-549): 8.76 µM | IC (TGI) (PANC-1; Homo sapiens, PANC-1, PANC-1, total growth inhibition (cytostatic effect), read-out: TGI PANC-1): 5.53 µM | CC50 (PANC-1; Homo sapiens, PANC-1, read-out: LC50 PANC-1, PANC-1): 8.76 µM | GI50 (PANC-1; PANC-1): 2.11 µM | CC50 (LoVo; Homo sapiens, LoVo, read-out: LC50 LOVO, LOVO): 8.76 µM | IC (TGI) (LoVo; Homo sapiens, LOVO, total growth inhibition (cytostatic effect), read-out: TGI LOVO): 8.76 µM | GI50 (LoVo; LOVO): 2.69 µM | stimulation of DNA cleavage by topoisomerase I / inhibition of topoisomerase I (nicked DNA band) in DNA relaxation assay (human topoisomerase I): No effect | IC (TGI) (K-562; Homo sapiens, K562, K-562, total growth inhibition (cytostatic effect), read-out: TGI K-562): 6.82 µM | CC50 (K-562; Homo sapiens, K562, read-out: LC50 K-562, K-562): 8.76 µM | GI50 (K-562; K-562): 1.07 µM | GI50 (LNCaP; LN-caP): 0.783 µM | TGI LN-caP (LNCaP; LN-caP): 2.02E−06 Molar | CC50 (LNCaP; human): 4.91 µM | GI50 (DU-145; DU-145): 1.6 µM | TGI DU-145 (DU-145; DU-145): 3.78E−06 Molar | CC50 (DU-145; human): 8.76 µM | GI50 (HT-29; HT-29): 1.15 µM | IC (TGI) (HT-29; Homo sapiens, HT-29, HT-29, total growth inhibition (cytostatic effect), read-out: TGI HT-29): 4.82 µM | CC50 (HT-29; Homo sapiens, HT-29, read-out: LC50 HT-29, HT-29): 8.76 µM
